Two molecules from patent US20160129080A1, “TREATMENT OF POLYPOIDAL CHROIDAL VASCULOPATHY” (priority 2013, published 2016) can be followed below.

Assay [1] in a line: Best corrected visual acuity change, randomized three-group patient study. It is filed as in vivo, human. As to conditions: month 6; mean±SD; ranibizumab 0.5 mg intravitreal. On the procedure: (§1) Sixty-one patients were randomized to three treatment groups: verteporfin photodynamic therapy, ranibizumab 0.5 mg, or the combination. Patients were administered with verteporfin photodynamic therapy/placebo and initiated with three consecutive monthly intravitreal ranibizumab/sham injections starting from day 1 (first photodynamic therapy session). Indocyanine green angiography was performed at baseline and at months 3, 4, 5, and 6. Fluorescein angiography was performed to assess the presence of leakage and to obtain fundus photographs at the same times. Changes in central retinal thickness were determined by optical coherence tomography. Treatment with ranibizumab/sham injections was repeated at months 3-5 on an as-needed basis.
(§2) The primary endpoint was the proportion of patients with indocyanine green angiography-assessed complete regression of polyps at month 6. Secondary endpoints included mean change in best corrected visual acuity at month 6 and safety.

The nature of assay [2]: Indocyanine green angiography-assessed complete regression of polyps, randomized three-group patient study. As to conditions: month 6, 61 patients randomized to three groups, ranibizumab 0.5 mg intravitreal. It is filed as in vivo, human. The method, then: as §1, §2

For verteporfin, in assay [1], the “Mean change±standard deviation in best corrected visual acuity” value came to 7.5±10.6 letters. In assay [2], the “proportion of patients with complete polyp regression” value is 71.4%.

B1: ranibizumab (antibody, chains of the INN, looked up, V domains shown)
VH: EVQLVESGGGLVQPGGSLRLSCAASGYDFTHYGMNWVRQAPGKGLEWVGWINTYTGEPTYAADFKRRFTFSLDTSKSTAYLQMNSLRAEDTAVYYCAKYPYYYGTSHWYFDVWGQGTLVTVSS
VL: DIQLTQSPSSLSASVGDRVTITCSASQDISNYLNWYQQKPGKAPKVLIYFTSSLHSGVPSRFSGSGSGTDFTLTISSLQPEDFATYYCQQYSTVPWTFGQGTKVEIK
modifications: Fab
notes: anti-VEGF antibody antagonist approved for human use
With B1, in assay [1], the “Mean change±standard deviation in best corrected visual acuity” value amounted to 9.2±12.4 letters. Moreover, the “proportion of patients with complete polyp regression” value in assay [2] is 28.6%.
